In ChEMBL document CHEMBL2346657, “Synthesis of novel 2-amino-4-(5'-substituted 2'-phenyl-1H-indol-3'-yl)-6-aryl-4H-pyran-3-carbonitrile derivatives as antimicrobial and antioxidant agents” (2013):
The source made the active and inactive calls. How the calls were made is not given here.

Tested on: Staphylococcus aureus
Assay: Antimicrobial activity against Staphylococcus aureus ATCC 29513 at 750 ug/ml after 24 hrs by cup plate method
Type: functional
Conditions: ATCC 29513, 24 h, read-out: IZ

| SMILES | zone of inhibition at 750 µg/mL |
| --- | --- |
| Cc1ccc(C2=CC(c3c(-c4ccccc4)[nH]c4ccc(C)cc34)c3c(nc4oc(=O)c(C#N)c(N)c4c3N)O2)cc1 (stereo not given) | 3 mm |

Tested on: Escherichia coli
Assay: Antimicrobial activity against Escherichia coli MTCC 723 at 1000 ug/ml after 24 hrs by cup plate method
Type: functional
Conditions: MTCC 723, 24 h, read-out: IZ

| SMILES | zone of inhibition at 1000 µg/mL |
| --- | --- |
| Cc1ccc(C2=CC(c3c(-c4ccccc4)[nH]c4ccc(C)cc34)c3c(nc4oc(=O)c(C#N)c(N)c4c3N)O2)cc1 (stereo not given) | 10 mm |

Tested on: Pseudomonas aeruginosa
Assay: Antimicrobial activity against Pseudomonas aeruginosa MTCC 1688 at 1000 ug/ml after 24 hrs by cup plate method
Type: functional
Conditions: MTCC 1688, 24 h, read-out: IZ

| SMILES | zone of inhibition at 1000 µg/mL |
| --- | --- |
| Cc1ccc(C2=CC(c3c(-c4ccccc4)[nH]c4ccc(C)cc34)c3c(nc4oc(=O)c(C#N)c(N)c4c3N)O2)cc1 (stereo not given) | 4 mm |

Tested on: Pseudomonas aeruginosa
Assay: Antimicrobial activity against Pseudomonas aeruginosa MTCC 1688 at 500 ug/ml after 24 hrs by cup plate method
Type: functional
Conditions: MTCC 1688, 24 h, read-out: IZ

| SMILES | zone of inhibition at 500 µg/mL |
| --- | --- |
| Cc1ccc(C2=CC(c3c(-c4ccccc4)[nH]c4ccc(C)cc34)c3c(nc4oc(=O)c(C#N)c(N)c4c3N)O2)cc1 (stereo not given) | 9 mm |

Tested on: not listed separately
Assay: Antioxidant activity assessed as metal chelating activity by measuring inhibition of ferrozine-Fe2+ complex formation at 25 to 100 ug/ml
Type: functional
Conditions: not given

| SMILES | Activity |
| --- | --- |
| Cc1ccc(C2=CC(c3c(-c4ccccc4)[nH]c4ccc(C)cc34)c3c(nc4oc(=O)c(C#N)c(N)c4c3N)O2)cc1 (stereo not given) | Active |

Tested on: Pseudomonas aeruginosa
Assay: Antimicrobial activity against Pseudomonas aeruginosa MTCC 1688 at 750 ug/ml after 24 hrs by cup plate method
Type: functional
Conditions: MTCC 1688, 24 h, read-out: IZ

| SMILES | zone of inhibition at 750 µg/mL |
| --- | --- |
| Cc1ccc(C2=CC(c3c(-c4ccccc4)[nH]c4ccc(C)cc34)c3c(nc4oc(=O)c(C#N)c(N)c4c3N)O2)cc1 (stereo not given) | 6 mm |

Tested on: Aspergillus flavus
Assay: Antimicrobial activity against Aspergillus flavus MTCC 1973 at 750 ug/ml after 72 hrs by cup plate method
Type: functional
Conditions: MTCC 1973, 72 h, read-out: IZ

| SMILES | zone of inhibition at 750 µg/mL |
| --- | --- |
| Cc1ccc(C2=CC(c3c(-c4ccccc4)[nH]c4ccc(C)cc34)c3c(nc4oc(=O)c(C#N)c(N)c4c3N)O2)cc1 (stereo not given) | 12 mm |

Tested on: Staphylococcus aureus
Assay: Antimicrobial activity against Staphylococcus aureus ATCC 29513 at 1000 ug/ml after 24 hrs by cup plate method
Type: functional
Conditions: ATCC 29513, 24 h, read-out: IZ

| SMILES | zone of inhibition at 1000 µg/mL |
| --- | --- |
| Cc1ccc(C2=CC(c3c(-c4ccccc4)[nH]c4ccc(C)cc34)c3c(nc4oc(=O)c(C#N)c(N)c4c3N)O2)cc1 (stereo not given) | 0 mm |

Tested on: Escherichia coli
Assay: Antimicrobial activity against Escherichia coli MTCC 723 at 500 ug/ml after 24 hrs by cup plate method
Type: functional
Conditions: MTCC 723, 24 h, read-out: IZ

| SMILES | zone of inhibition at 500 µg/mL |
| --- | --- |
| Cc1ccc(C2=CC(c3c(-c4ccccc4)[nH]c4ccc(C)cc34)c3c(nc4oc(=O)c(C#N)c(N)c4c3N)O2)cc1 (stereo not given) | 10 mm |

Tested on: Aspergillus niger
Assay: Antimicrobial activity against Aspergillus niger MTCC 281 at 750 ug/ml after 72 hrs by cup plate method
Type: functional
Conditions: MTCC 281, 72 h, read-out: IZ

| SMILES | zone of inhibition at 750 µg/mL |
| --- | --- |
| Cc1ccc(C2=CC(c3c(-c4ccccc4)[nH]c4ccc(C)cc34)c3c(nc4oc(=O)c(C#N)c(N)c4c3N)O2)cc1 (stereo not given) | 0 mm |

Tested on: Escherichia coli
Assay: Antimicrobial activity against Escherichia coli MTCC 723 at 750 ug/ml after 24 hrs by cup plate method
Type: functional
Conditions: MTCC 723, 24 h, read-out: IZ

| SMILES | zone of inhibition at 750 µg/mL |
| --- | --- |
| Cc1ccc(C2=CC(c3c(-c4ccccc4)[nH]c4ccc(C)cc34)c3c(nc4oc(=O)c(C#N)c(N)c4c3N)O2)cc1 (stereo not given) | 10 mm |

Tested on: Aspergillus oryzae
Assay: Antimicrobial activity against Aspergillus oryzae MTCC 3567 at 1000 ug/ml after 72 hrs by cup plate method
Type: functional
Conditions: MTCC 3567, 72 h, read-out: IZ

| SMILES | zone of inhibition at 1000 µg/mL |
| --- | --- |
| Cc1ccc(C2=CC(c3c(-c4ccccc4)[nH]c4ccc(C)cc34)c3c(nc4oc(=O)c(C#N)c(N)c4c3N)O2)cc1 (stereo not given) | 10 mm |

Tested on: Aspergillus terreus
Assay: Antimicrobial activity against Aspergillus terreus MTCC 1782 at 750 ug/ml after 72 hrs by cup plate method
Type: functional
Conditions: MTCC 1782, 72 h, read-out: IZ

| SMILES | zone of inhibition at 750 µg/mL |
| --- | --- |
| Cc1ccc(C2=CC(c3c(-c4ccccc4)[nH]c4ccc(C)cc34)c3c(nc4oc(=O)c(C#N)c(N)c4c3N)O2)cc1 (stereo not given) | 4 mm |

Tested on: Klebsiella pneumoniae
Assay: Antimicrobial activity against Klebsiella pneumoniae NCTC 13368 at 1000 ug/ml after 24 hrs by cup plate method
Type: functional
Conditions: NCTC 13368, 24 h, read-out: IZ

| SMILES | zone of inhibition at 1000 µg/mL |
| --- | --- |
| Cc1ccc(C2=CC(c3c(-c4ccccc4)[nH]c4ccc(C)cc34)c3c(nc4oc(=O)c(C#N)c(N)c4c3N)O2)cc1 (stereo not given) | 10 mm |

Tested on: Klebsiella pneumoniae
Assay: Antimicrobial activity against Klebsiella pneumoniae NCTC 13368 at 500 ug/ml after 24 hrs by cup plate method
Type: functional
Conditions: NCTC 13368, 24 h, read-out: IZ

| SMILES | zone of inhibition at 500 µg/mL |
| --- | --- |
| Cc1ccc(C2=CC(c3c(-c4ccccc4)[nH]c4ccc(C)cc34)c3c(nc4oc(=O)c(C#N)c(N)c4c3N)O2)cc1 (stereo not given) | 11 mm |

Tested on: Aspergillus flavus
Assay: Antimicrobial activity against Aspergillus flavus MTCC 1973 at 1000 ug/ml after 72 hrs by cup plate method
Type: functional
Conditions: MTCC 1973, 72 h, read-out: IZ

| SMILES | zone of inhibition at 1000 µg/mL |
| --- | --- |
| Cc1ccc(C2=CC(c3c(-c4ccccc4)[nH]c4ccc(C)cc34)c3c(nc4oc(=O)c(C#N)c(N)c4c3N)O2)cc1 (stereo not given) | 13 mm |

Tested on: Aspergillus terreus
Assay: Antimicrobial activity against Aspergillus terreus MTCC 1782 at 1000 ug/ml after 72 hrs by cup plate method
Type: functional
Conditions: MTCC 1782, 72 h, read-out: IZ

| SMILES | zone of inhibition at 1000 µg/mL |
| --- | --- |
| Cc1ccc(C2=CC(c3c(-c4ccccc4)[nH]c4ccc(C)cc34)c3c(nc4oc(=O)c(C#N)c(N)c4c3N)O2)cc1 (stereo not given) | 4 mm |

Tested on: Klebsiella pneumoniae
Assay: Antimicrobial activity against Klebsiella pneumoniae NCTC 13368 at 750 ug/ml after 24 hrs by cup plate method
Type: functional
Conditions: NCTC 13368, 24 h, read-out: IZ

| SMILES | zone of inhibition at 750 µg/mL |
| --- | --- |
| Cc1ccc(C2=CC(c3c(-c4ccccc4)[nH]c4ccc(C)cc34)c3c(nc4oc(=O)c(C#N)c(N)c4c3N)O2)cc1 (stereo not given) | 10 mm |

Tested on: Aspergillus terreus
Assay: Antimicrobial activity against Aspergillus terreus MTCC 1782 at 500 ug/ml after 72 hrs by cup plate method
Type: functional
Conditions: MTCC 1782, 72 h, read-out: IZ

| SMILES | zone of inhibition at 500 µg/mL |
| --- | --- |
| Cc1ccc(C2=CC(c3c(-c4ccccc4)[nH]c4ccc(C)cc34)c3c(nc4oc(=O)c(C#N)c(N)c4c3N)O2)cc1 (stereo not given) | 9 mm |

Tested on: Aspergillus niger
Assay: Antimicrobial activity against Aspergillus niger MTCC 281 at 500 ug/ml after 72 hrs by cup plate method
Type: functional
Conditions: MTCC 281, 72 h, read-out: IZ

| SMILES | zone of inhibition at 500 µg/mL |
| --- | --- |
| Cc1ccc(C2=CC(c3c(-c4ccccc4)[nH]c4ccc(C)cc34)c3c(nc4oc(=O)c(C#N)c(N)c4c3N)O2)cc1 (stereo not given) | 0 mm |

Tested on: Staphylococcus aureus
Assay: Antimicrobial activity against Staphylococcus aureus ATCC 29513 at 500 ug/ml after 24 hrs by cup plate method
Type: functional
Conditions: ATCC 29513, 24 h, read-out: IZ

| SMILES | zone of inhibition at 500 µg/mL |
| --- | --- |
| Cc1ccc(C2=CC(c3c(-c4ccccc4)[nH]c4ccc(C)cc34)c3c(nc4oc(=O)c(C#N)c(N)c4c3N)O2)cc1 (stereo not given) | 3 mm |

Tested on: Aspergillus oryzae
Assay: Antimicrobial activity against Aspergillus oryzae MTCC 3567 at 750 ug/ml after 72 hrs by cup plate method
Type: functional
Conditions: MTCC 3567, 72 h, read-out: IZ

| SMILES | zone of inhibition at 750 µg/mL |
| --- | --- |
| Cc1ccc(C2=CC(c3c(-c4ccccc4)[nH]c4ccc(C)cc34)c3c(nc4oc(=O)c(C#N)c(N)c4c3N)O2)cc1 (stereo not given) | 11 mm |

Tested on: Aspergillus niger
Assay: Antimicrobial activity against Aspergillus niger MTCC 281 at 1000 ug/ml after 72 hrs by cup plate method
Type: functional
Conditions: MTCC 281, 72 h, read-out: IZ

| SMILES | zone of inhibition at 1000 µg/mL |
| --- | --- |
| Cc1ccc(C2=CC(c3c(-c4ccccc4)[nH]c4ccc(C)cc34)c3c(nc4oc(=O)c(C#N)c(N)c4c3N)O2)cc1 (stereo not given) | 0 mm |

Tested on: Aspergillus flavus
Assay: Antimicrobial activity against Aspergillus flavus MTCC 1973 at 500 ug/ml after 72 hrs by cup plate method
Type: functional
Conditions: MTCC 1973, 72 h, read-out: IZ

| SMILES | zone of inhibition at 500 µg/mL |
| --- | --- |
| Cc1ccc(C2=CC(c3c(-c4ccccc4)[nH]c4ccc(C)cc34)c3c(nc4oc(=O)c(C#N)c(N)c4c3N)O2)cc1 (stereo not given) | 12 mm |

Tested on: Aspergillus oryzae
Assay: Antimicrobial activity against Aspergillus oryzae MTCC 3567 at 500 ug/ml after 72 hrs by cup plate method
Type: functional
Conditions: MTCC 3567, 72 h, read-out: IZ

| SMILES | zone of inhibition at 500 µg/mL |
| --- | --- |
| Cc1ccc(C2=CC(c3c(-c4ccccc4)[nH]c4ccc(C)cc34)c3c(nc4oc(=O)c(C#N)c(N)c4c3N)O2)cc1 (stereo not given) | 10 mm |
